# Test results from BindingDB's records for doi:10.1021/jm1009154 (University of Copenhagen, 2010).
# Biological target: Excitatory amino acid transporter 1 (Homo sapiens, UniProt P43003)
# Experiment: Inhibition of human EAAT1 expressed in HEK293 cells by [3H]D-Asp uptake assay
# Excitatory amino acid transporter 1, sequence (P43003 whole entry): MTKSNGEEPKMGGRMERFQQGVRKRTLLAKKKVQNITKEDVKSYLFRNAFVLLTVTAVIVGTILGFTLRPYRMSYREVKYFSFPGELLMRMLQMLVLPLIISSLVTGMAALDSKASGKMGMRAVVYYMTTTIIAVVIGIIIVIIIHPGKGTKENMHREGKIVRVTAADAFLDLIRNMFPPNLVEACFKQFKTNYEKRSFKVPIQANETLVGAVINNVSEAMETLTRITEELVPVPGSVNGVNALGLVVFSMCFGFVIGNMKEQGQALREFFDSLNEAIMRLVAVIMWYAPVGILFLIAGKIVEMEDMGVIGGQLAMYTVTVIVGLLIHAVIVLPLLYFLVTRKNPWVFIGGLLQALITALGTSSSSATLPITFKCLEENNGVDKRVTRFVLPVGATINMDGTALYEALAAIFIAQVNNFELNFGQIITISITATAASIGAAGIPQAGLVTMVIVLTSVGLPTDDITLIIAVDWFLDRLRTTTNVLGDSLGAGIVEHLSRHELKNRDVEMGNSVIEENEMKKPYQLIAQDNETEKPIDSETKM
row,SMILES,IC50
1,"N#CC1C(=N)OC2=C(C(=O)O[C@H](c3ccccc3)C2)[C@@H]1c1ccccc1 (relative stereo) [anti-2-Amino-5-oxo-4,7-diphenyl-4,5,7,8-tetrahydropyrano[4,3-b]-pyran-3-carbonitril]",> 300 µM
2,"N#CC1C(=N)OC2=C(C(=O)N[C@H](c3ccccc3)C2)[C@@H]1c1ccccc1 (relative stereo) [anti-2-Amino-5-oxo-4,7-diphenyl-5,6,7,8-tetrahydro-4H-pyrano-[3,2-c]pyridine-3-carbonitrile]",> 316 µM
3,"N#CC1C(=N)OC2=C(C(=O)O[C@@H](c3ccccc3)C2)[C@@H]1c1ccccc1 (relative stereo) [syn-2-Amino-5-oxo-4,7-diphenyl-4,5,7,8-tetrahydropyrano[4,3-b]-pyran-3-carbonitrile]",> 300 µM
4,"N#CC1C(=N)OC2=C(C(=O)N[C@@H](c3ccccc3)C2)[C@@H]1c1ccccc1 (relative stereo) [syn-2-amino-5-oxo-4,7-diphenyl-5,6,7,8-tetrahydro-4H-pyrano[3,2-c]pyridine-3-carbonitrile]",> 300 µM
5,"N=C1CC(c2ccccc2)C2=C(CC(c3ccccc3)CC2=O)O1 (stereo not drawn) [2-Amino-4,7-diphenyl-7,8-dihydro-4H-chromen-5(6H)-one]",> 100 µM
6,"N=C1OC2=C(C(=O)CC(c3ccccc3)C2)C(c2ccccc2)C1C(N)=O (stereo not drawn) [2-Amino-5-oxo-4,7-diphenyl-5,6,7,8-tetrahydro-4H-chromene-3-carboxamide]",> 100 µM
7,"CC1CC(=O)C2=C(C1)OC(=N)C(C#N)C2c1ccc2c(c1)OCO2 (stereo not drawn) [2-amino-4-(benzo[d][1,3]dioxol-5-yl)-7-methyl-5-oxo-5,6,7,8-tetrahydro-4H-chromene-3-carbonitrile]",> 316 µM
8,"COC(=O)C1C(=N)OC2=C(C(=O)CC(c3ccccc3)C2)C1c1ccccc1 (stereo not drawn) [Methyl2-Amino-5-oxo-4,7-diphenyl-5,6,7,8-tetrahydro-4Hchromene-3-carboxylate]",> 300 µM
